This data set is described as follows: Stability study on nanogel composition of Example 1 (storage at 40° C. and 75% relative humidity). It counts as physicochemical. The following applies: for % Drug in the formulation, 1 Month / % Drug in the formulation, 2 Month / % Drug in the formulation, 3 Month: 40° C. and 75% relative humidity; for % Drug in the formulation, 2 Month: 2 months; for % Drug in the formulation, 3 Month: 3 months. An excerpt:
Stability Study on Nanogel Composition of Example 1

[1] abbreviates: nanogel Formulation 1 of Example 1.
The mark [2] stands for this setting: nanogel Formulation 2 of Example 1.

Each structure is given as a SMILES string.

As for `CCc1cccc2c3c([nH]c12)C(CC)(CC(=O)O)OCC3` (racemic) [Etodolac, (RS)-2-(1,8-Diethyl-4,9-dihydro-3H-pyrano[3,4-b]indol-1-yl)acetic acid], under setting [1], the “% Drug in the formulation, 1 Month” value was determined as 99.5%; the “% Drug in the formulation, 2 Month” value is recorded as 97.7%; the “% Drug in the formulation, 3 Month” value is reported as 95.9%; the “% Drug in the formulation, Initial” value is 101.6%. Moreover, under setting [2], the “% Drug in the formulation, 1 Month” value is given as 97.6%; the “% Drug in the formulation, 2 Month” value worked out at 103.0%; the “% Drug in the formulation, 3 Month” value is reported as 102.3%; the “% Drug in the formulation, Initial” value worked out at 100.4%.
On to `COC(=O)c1ccccc1O` [Methyl salicylate], for which, under setting [1], the “% Drug in the formulation, 1 Month” value was determined as 100.9%; the “% Drug in the formulation, 2 Month” value stood at 95.2%; the “% Drug in the formulation, 3 Month” value is 93.2%; the “% Drug in the formulation, Initial” value stood at 97.3%. Besides, under setting [2], the “% Drug in the formulation, 1 Month” value was found to be 101.2%; the “% Drug in the formulation, 2 Month” value is 97.7%; the “% Drug in the formulation, 3 Month” value is 97.2%; the “% Drug in the formulation, Initial” value worked out at 100.2%.

The values above are taken from patent publication US20130295145A1, “TOPICAL PHARMACEUTICAL COMPOSITIONS COMPRISING ETODOLAC” (CADILA HEALTHCARE LIMITED, priority 2010, published 2013).
